{
  "source": "patent US20250154188A1",
  "about": "“C-GLYCOSIDES AS ANTI-INFLAMMATORY AGENTS” (UNIVERSITY OF PITTSBURGH - OF THE COMMONWEALTH SYSTEM OF …, priority 2022, published 2025)",
  "key": {"mice with NEC [1]": {"test_system": "mice with NEC", "test": "Mouse NEC model, H&E staining of ileal tissue sections", "assay_type": "in vivo", "details": "oral gavage 10 mg per kg body weight per day, FIG. 13", "description": "(§1) Mouse NEC model. Experimental NEC was induced in a well validated and reproducible model in 7-day-old mice of either gender, which were randomly divided into control and test groups, by gavage feeding newborn mice with formula containing Similac Advance infant formula (Abbott Nutrition): Esbilac (PetAg) canine milk replacer, 2:1 ratio, which was supplemented with enteric bacteria made from a stock created from a specimen obtained from an infant with surgical NEC five times per day. Additionally, the mice were subjected to hypoxia (5% O2-95% N2) for 10 min in a hypoxia chamber (Billups-Rothenberg) twice daily for 4 days. The C34 analogues were administered by oral gavage during the induction of NEC at the dose of 10 mg per kg body weight per day. Age-matched breast milk-fed mouse pups were used as non-NEC controls. The relative mRNA expression levels of Toll-like receptor 4 (Tlr4) (FIG. 3), interleukin 6 (Il6) (FIG. 4), interleukin 1 beta (Il1b) (FIG. 5), tumor necrosis factor (Tnf) (FIG. 6) and lipocalin 2 (Lcn2) (FIG. 7) were shown.\nHematoxylin and eosin (H&E) staining. […]"}, "mice with NEC [2]": {"test_system": "mice with NEC", "test": "Mouse NEC model, ileal inflammation marker mRNA (qRT-PCR)", "assay_type": "in vivo", "details": "neonatal mice, oral gavage 10 mg per kg body weight per day during NEC induction; FIG. 3-7", "description": "as §1, with “Age-matched breast milk-fed mouse pups were used as non-NEC controls. The relative mRNA expression levels of Toll-like receptor 4 (Tlr4) (FIG. 3), interleukin 6 (Il6) (FIG. 4), interleukin 1 beta (Il1b) (FIG. 5), tumor necrosis factor (Tnf) (FIG. 6) and lipocalin 2 (Lcn2) (FIG. 7) were shown.” left out\nRNA isolation, cDNA synthesis and qPCR. Total RNA was isolated using the RNeasy mini kit (Qiagen) and complementary DNA was synthesized from 0.5 μg RNA using QuantiTect Reverse Transcription kit (Qiagen) following the manufacturer's protocols. The mRNA quantification was performed on the Bio-Rad CFX96 Real-Time System (Bio-Rad) using iTaq™ universal SYBR® Green supermix (Bio-Rad) and Bio-Rad CFX Manager 3.1 software was used to collect data from qRT-PCR. […]\nStatistical Analysis. Transcript levels for inflammatory biomarkers were assessed by performing a one-way ANOVA statistical analysis followed by multiple comparison. […]"}},
  "data": [
    {"smiles": "CC(C)CC1OC(COC(=O)CC(C)(C)C)C(OC(=O)CC(C)(C)C)C(OC(=O)CC(C)(C)C)C1OC(=O)CC(C)(C)C", "note": "(centres unmarked) [Compound C281]", "values": [
      {"measurement": "tissue architecture of the intestinal lining (H&E)", "setting": "mice with NEC [1]", "value": "preserve the tissue architecture of the intestinal lining"},
      {"measurement": "necrotizing enterocolitis inflammation markers Tlr4, Il6, Il1b, Tnf, Lcn2 (relative mRNA expression in ileum)", "setting": "mice with NEC [2]", "value": "robust response"}
    ]}
  ]
}
